Measurements: article PMC8838850, “Synthesis, Antimicrobial, Anti-Virulence and Anticancer Evaluation of New 5(4H)-Oxazolone-Based Sulfonamides” (Molecules, 2022)
Converted amounts (≈) assume the structure as drawn. “And” between values parts separate entries of the source, which are not always exact repeats. Identical values can stand only once. Like-named read-outs stand apart in the source and are kept apart here. Blank lines part the entries; values can stand above or below the molecule they belong to.

Tests used:
BxPC-3 = test: SRB cellular proliferation assay; assay type: cell-based, human; conditions: BxPC-3 cells, mean ± SD (n = 3)
Method: (§1) The pancreatic human cancer cell lines BxPC-3 and Panc-1, the human hepatocellular carcinoma (HepG-2), and the normal immortalized pancreatic cell line HPDE, that were used in this study, were obtained from the American Type Culture Collection (Rockville, USA). Cell lines were cultured and treated with the tested compounds or dimethyl sulfoxide (DMSO) as previously described. Cells were cultivated in DMEM medium (Invitrogen, Carlsbad, CA, USA), supplemented with streptomycin, penicillin and fetal bovine serum (FCS) (Invitrogen, Carlsbad, CA, USA). The sulforhodamine B (SRB) assay was employed to assess the anti-proliferative effects of tested compounds on cancer cells. Cell lines were incubated and regularly treated with DMSO or increasing doses of tested compounds for 48 h. The cells were fixed with 10% trichloroacetic acid and stained with SRB fluorescent dye for 30 min. Then, the bounded SRB dye to cellular proteins was dissolved in 10 mM Tris base after washing excess dye with 1% acetic acid. The absorbance was measured at 510 nm in a reader (Biotek, Winooski, VT, USA).

HepG-2 = test: SRB cellular proliferation assay; assay type: cell-based, human; conditions: mean ± SD (n = 3)
Method: as §1

Panc-1 = test: SRB cellular proliferation assay; assay type: cell-based, human; conditions: Panc-1 cells, mean ± SD (n = 3)
Method: as §1

[1] = tested on: Aspergillus niger ATCC 16404; test: MIC by agar dilution (antifungal); assay type: cell-based
Method: (§2) The MICs of the synthesized compound were determined by agar dilution method according to the Clinical Laboratory and Standards Institute Guidelines (CLSI, 2015). Briefly, the tested strains were incubated overnight in tryptic soy broth (TSB) (Oxoid, United Kingdom) and then diluted in Muller–Hinton (MH) broth (Oxoid, United Kingdom) to turbidity approximating to the equivalent of 0.5 McFarland standard. The suspensions were further diluted with sterile saline (1:10) and standardized inoculums (approximately 10^4 CFU per spot) were spotted on the surfaces of MH agar (Oxoid, United Kingdom) plates containing different concentrations of tested compounds and a control plate. The MICs were the lowest concentrations that inhibit growth on the plates after incubation at 37 °C for 20 h.

HPDE = test: SRB cell viability assay, normal cells; assay type: cell-based
Method: Firstly, to determine the cell viability, HPDE cell lines were treated with all new synthesized compounds 9a–k for 96 h using sulforhodamine B (SRB) assay. All newly synthesized compounds were proven non-toxic with IC50 more than […] (Table 2).
The pancreatic human cancer cell lines BxPC-3 and Panc-1, the human hepatocellular carcinoma (HepG-2), and the normal immortalized pancreatic cell line HPDE, that were used in this study, were obtained from the American Type Culture Collection (Rockville, USA). Cell lines were cultured and treated with the tested compounds or dimethyl sulfoxide (DMSO) as previously described. Cells were cultivated in DMEM medium (Invitrogen, Carlsbad, CA, USA), supplemented with streptomycin, penicillin and fetal bovine serum (FCS) (Invitrogen, Carlsbad, CA, USA).
The sulforhodamine B (SRB) assay was employed to assess the anti-proliferative effects of tested compounds on cancer cells. Cell lines were incubated and regularly treated with DMSO or increasing doses of tested compounds for 48 h. The cells were fixed with 10% trichloroacetic acid and stained with SRB fluorescent dye for 30 min. Then, the bounded SRB dye to cellular proteins was dissolved in 10 mM Tris base after washing excess dye with 1% acetic acid. The absorbance was measured at 510 nm in a reader (Biotek, Winooski, VT, USA).

[2] = tested on: Pseudomonas aeruginosae ATCC 47085; test: MIC by agar dilution; assay type: cell-based, Pseudomonas aeruginosa; conditions: 20 h
Method: as §2

[3] = tested on: Staphylococcus epidermidis ATCC 12228; test: MIC by agar dilution; assay type: cell-based; conditions: 20 h
Method: as §2

[4] = tested on: Klebsiella pneumoniae ATCC 27736; test: MIC by agar dilution; assay type: cell-based; conditions: 20 h
Method: as §2

[5] = tested on: Staphylococcus aureus ATCC 6538; test: MIC by agar dilution; assay type: cell-based; conditions: 20 h
Method: as §2

[6] = tested on: Micrococcus spp. ATCC 10240; test: MIC by agar dilution; assay type: cell-based; conditions: 20 h
Method: as §2

[7] = tested on: Escherichia coli ATCC 10536; test: MIC by agar dilution; assay type: cell-based; conditions: 20 h
Method: as §2

[8] = tested on: Salmonella typhimurium ATCC 14028; test: MIC by agar dilution; assay type: cell-based; conditions: 37 °C, 20 h
Method: as §2

[9] = tested on: Candida albicans ATCC 10231; test: MIC by agar dilution (antifungal); assay type: cell-based; conditions: Candida albicans ATCC 10231
Method: as §2

- IC50 (BxPC-3; Homo sapiens, read-out: IC50): 7.27 ± 1.49 µg/mL (≈ 17.3 µM)
- IC50 (Panc-1; Homo sapiens, read-out: IC50): 19.9 ± 3.35 µg/mL (≈ 47.4 µM)
- melting point: 210 to 212 °C
- MIC ([1]; ATCC16404, 20 h, read-out: Minimum inhibitory concentration (MIC)): 16 µg/mL (≈ 38.1 µM)
- MIC ([1]; ATCC16404, read-out: Minimum inhibitory concentration (MIC)): > 32 µg/mL
- MIC ([2]; ATCC47085, 37 °C, read-out: Minimum inhibitory concentration (MIC)): > 32 µg/mL
- MIC ([3]; ATCC12228, 37 °C, read-out: Minimum inhibitory concentration (MIC)): 4 µg/mL (≈ 9.54 µM)
- MIC ([4]; ATCC27736, 37 °C, read-out: Minimum inhibitory concentration (MIC)): > 32 µg/mL
- MIC ([5]; ATCC6538, 37 °C, read-out: Minimum inhibitory concentration (MIC)): 4 µg/mL (≈ 9.54 µM)
- MIC ([6]; ATCC10240, 37 °C, read-out: Minimum inhibitory concentration (MIC)): 2 µg/mL (≈ 4.77 µM)
- MIC ([7]; ATCC10536, 37 °C, read-out: Minimum inhibitory concentration (MIC)): 16 µg/mL (≈ 38.1 µM)
- MIC ([8]; Salmonella enterica, read-out: Minimum inhibitory concentration (MIC)): > 32 µg/mL
Molecule: Cc1ccc(S(=O)(=O)Nc2ccccc2C2=N/C(=C/c3ccncc3)C(=O)O2)cc1 [Compound 9k, (E)-4-Methyl-N-(2-(5-oxo-4-(pyridin-4-ylmethylene)-4,5-dihydrooxazol-2-yl)phenyl)benzenesulfonamide]
- IC50 (HepG-2; Homo sapiens, HepG2, HepG-2 cells, read-out: IC50): 33.1 ± 5.12 µg/mL (≈ 78.9 µM)
- IC50 (HPDE; normal HPDE cells, read-out: IC50): > 50 µg/mL

Molecule: (E)-4-Methyl-N-(2-(4-(naphthalen-1-ylmethylene)-5-oxo-4,5-dihydrooxazol-2-yl)phenyl)benzenesulfonamide [Compound 9h]
- IC50 (BxPC-3): 12.60 ± 0.62 µg/mL
- IC50 (HepG-2; HepG-2 cells): 17.34 ± 0.96 µg/mL
- IC50 (Panc-1): 14.72 ± 2.87 µg/mL
- Minimum inhibitory concentration (MIC) [1]: 8 µg/mL and 4 µg/mL
- Minimum inhibitory concentration (MIC) [9]: 4 µg/mL and 2 µg/mL
- IC50 (HPDE; HPDE normal immortalized cell line, 96 h): >50000 µg/mL
- Minimum inhibitory concentration (MIC) ([2]; 37 °C): >32 µg/mL
- Minimum inhibitory concentration (MIC) ([3]; 37 °C): >32 µg/mL
- Minimum inhibitory concentration (MIC) ([4]; 37 °C): >32 µg/mL
- Minimum inhibitory concentration (MIC) ([5]; 37 °C): >32 µg/mL
- Minimum inhibitory concentration (MIC) ([6]; 37 °C): >32 µg/mL
- Minimum inhibitory concentration (MIC) ([7]; 37 °C): >32 µg/mL
- Minimum inhibitory concentration (MIC) [8]: >32 µg/mL
